Results as given in PubChem BioAssay AID2060620 (Molecular Pharmacology Branch, DTP, NCI, 2025).

Test system: 328373-195-R-J1-PDC complex spheroids, viability % test/control
Experiment: Anticancer human tumor 328373-195-R-J1-PDC patient-derived head and neck squamous carcinoma cell line growth inhibition [CLK]
Conditions: for IC50: curve of first compound; for viability, T/C: stronger effect = lower value; active = viability on the fitted dose curve at most 10% of control; inactive = the rest
Outline: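 Patient-derived tumor cells grown as complex spheroids with HUVEC endothelial cells and mesenchymal stem cells, treated with drug combinations. Concentrations descend in half-log steps from near clinical Cmax, or from 10 microM if Cmax unknown.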

[1] = second compound 0.0316 µM, first compound 0.0316 µM
[2] = second compound 0.0316 µM, first compound 0.1 µM
[3] = second compound 0.0316 µM, first compound 0.316 µM
[4] = second compound 0.0316 µM, first compound 1 µM
[5] = second compound 0.0316 µM, first compound 3.16 µM
[6] = second compound 0.0316 µM, first compound 10 µM
[7] = second compound 0.1 µM, first compound 0.0316 µM
[8] = second compound 0.1 µM, first compound 0.1 µM
[9] = second compound 0.1 µM, first compound 0.316 µM
[10] = second compound 0.1 µM, first compound 1 µM
[11] = second compound 0.1 µM, first compound 3.16 µM
[12] = second compound 0.1 µM, first compound 10 µM
[13] = second compound 0.316 µM, first compound 0.0316 µM
[14] = second compound 0.316 µM, first compound 0.1 µM
[15] = second compound 0.316 µM, first compound 0.316 µM
[16] = second compound 0.316 µM, first compound 1 µM
[17] = second compound 0.316 µM, first compound 3.16 µM
[18] = second compound 0.316 µM, first compound 10 µM
[19] = second compound 1 µM, first compound 0.0316 µM
[20] = second compound 1 µM, first compound 0.1 µM
[21] = second compound 1 µM, first compound 0.316 µM
[22] = second compound 1 µM, first compound 1 µM
[23] = second compound 1 µM, first compound 3.16 µM
[24] = second compound 1 µM, first compound 10 µM
[25] = second compound 3.16 µM, first compound 0.0316 µM
[26] = second compound 3.16 µM, first compound 0.1 µM
[27] = second compound 3.16 µM, first compound 0.316 µM
[28] = second compound 3.16 µM, first compound 1 µM
[29] = second compound 3.16 µM, first compound 3.16 µM
[30] = second compound 3.16 µM, first compound 10 µM
[31] = second compound 10 µM, first compound 0.0316 µM
[32] = second compound 10 µM, first compound 0.1 µM
[33] = second compound 10 µM, first compound 0.316 µM
[34] = second compound 10 µM, first compound 1 µM
[35] = second compound 10 µM, first compound 3.16 µM
[36] = second compound 10 µM, first compound 10 µM
[37] = second compound 0.0316 µM, first compound 0.00316 µM
[38] = second compound 0.0316 µM, first compound 0.01 µM
[39] = second compound 0.1 µM, first compound 0.00316 µM
[40] = second compound 0.1 µM, first compound 0.01 µM
[41] = second compound 0.316 µM, first compound 0.00316 µM
[42] = second compound 0.316 µM, first compound 0.01 µM
[43] = second compound 1 µM, first compound 0.00316 µM
[44] = second compound 1 µM, first compound 0.01 µM
[45] = second compound 3.16 µM, first compound 0.00316 µM
[46] = second compound 3.16 µM, first compound 0.01 µM
[47] = second compound 10 µM, first compound 0.00316 µM
[48] = second compound 10 µM, first compound 0.01 µM
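Also: spheroids exposed to the agents for 7 days.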

CC(=O)O[C@H]1C(=O)[C@@]2(C)[C@H]([C@H](OC(=O)c3ccccc3)[C@]3(O)C[C@H](OC(=O)[C@H](O)[C@@H](NC(=O)c4ccccc4)c4ccccc4)C(C)=C1C3(C)C)[C@]1(OC(C)=O)CO[C@@H]1C[C@@H]2O + CN1CCN(c2cc(C(=O)Nc3cc4cc(-c5cnn(C)c5)ccc4cn3)ccn2)CC1
< 31.6 nM: IC50 (second compound 0.0316 µM) | IC50 (second compound 0.1 µM) | IC50 (second compound 0.316 µM) | IC50 (second compound 1 µM) | IC50 (second compound 3.16 µM) | IC50 (second compound 10 µM)
active: viability, T/C [1] 7.74% | viability, T/C [2] 4.32% | viability, T/C [3] 7.3% | viability, T/C [4] 5.75% | viability, T/C [5] 9.83% | viability, T/C [6] 12.9% | viability, T/C [7] 2.72% | viability, T/C [8] 2.97% | viability, T/C [9] 8.34% | viability, T/C [10] 5.1% | viability, T/C [11] 7.93% | viability, T/C [12] 9.97% | viability, T/C [13] 3.35% | viability, T/C [14] 5.31% | viability, T/C [15] 5.81% | viability, T/C [16] 5.22% | viability, T/C [17] 5.91% | viability, T/C [18] 10.6% | viability, T/C [19] 0.18% | viability, T/C [20] 0.12% | viability, T/C [21] 0.12% | viability, T/C [22] 0.07% | viability, T/C [23] 0.08% | viability, T/C [24] 0.07% | viability, T/C [25] 2.71% | viability, T/C [26] 0.11% | viability, T/C [27] 0.12% | viability, T/C [28] 0.08% | viability, T/C [29] 0.76% | viability, T/C [30] 2.99% | viability, T/C [31] 1.85% | viability, T/C [32] 1.39% | viability, T/C [33] 0.15% | viability, T/C [34] 0.17% | viability, T/C [35] 2.04% | viability, T/C [36] 2.05%

CCc1c2c(nc3ccc(O)cc13)-c1cc3c(c(=O)n1C2)COC(=O)[C@]3(O)CC + CN1CCN(c2cc(C(=O)Nc3cc4cc(-c5cnn(C)c5)ccc4cn3)ccn2)CC1
inactive: viability, T/C [37] 12.2% | viability, T/C [39] 10.9%
< 3.16 nM: IC50 (second compound 0.0316 µM) | IC50 (second compound 0.1 µM) | IC50 (second compound 0.316 µM) | IC50 (second compound 1 µM) | IC50 (second compound 3.16 µM) | IC50 (second compound 10 µM)
active: viability, T/C [38] 1.41% | viability, T/C [1] 2.09% | viability, T/C [2] 0.42% | viability, T/C [3] 0.89% | viability, T/C [4] 2.49% | viability, T/C [40] 2.12% | viability, T/C [7] 2.78% | viability, T/C [8] 0.32% | viability, T/C [9] 1.24% | viability, T/C [10] 0.18% | viability, T/C [41] 7.1% | viability, T/C [42] 3.19% | viability, T/C [13] 1.44% | viability, T/C [14] 0.21% | viability, T/C [15] 0.41% | viability, T/C [16] 0.05% | viability, T/C [43] 0.07% | viability, T/C [44] 1.93% | viability, T/C [19] 2.72% | viability, T/C [20] 0.03% | viability, T/C [21] 0.04% | viability, T/C [22] 0.78% | viability, T/C [45] 0.96% | viability, T/C [46] 0.54% | viability, T/C [25] 0.11% | viability, T/C [26] 2.41% | viability, T/C [27] 2.52% | viability, T/C [28] 0.11% | viability, T/C [47] 0.51% | viability, T/C [48] 0.1% | viability, T/C [31] 1.56% | viability, T/C [32] 0.07% | viability, T/C [33] 1.03% | viability, T/C [34] 2.56%

Cn1ncnc1[C@H]1c2n[nH]c(=O)c3cc(F)cc(c23)N[C@@H]1c1ccc(F)cc1 + CN1CCN(c2cc(C(=O)Nc3cc4cc(-c5cnn(C)c5)ccc4cn3)ccn2)CC1
inactive: viability, T/C (second compound 0.0316 µM, first compound 0.000316 µM) 93.5% | viability, T/C (second compound 0.0316 µM, first compound 0.001 µM) 84.3% | viability, T/C [37] 91.8% | viability, T/C [38] 119% | viability, T/C [1] 95.1% | viability, T/C [2] 82.2% | viability, T/C (second compound 0.1 µM, first compound 0.000316 µM) 80.5% | viability, T/C (second compound 0.1 µM, first compound 0.001 µM) 78.7% | viability, T/C [39] 83.9% | viability, T/C [40] 86.8% | viability, T/C [7] 85.8% | viability, T/C [8] 59.7% | viability, T/C (second compound 0.316 µM, first compound 0.000316 µM) 29.9% | viability, T/C (second compound 0.316 µM, first compound 0.001 µM) 33.9% | viability, T/C [41] 28.4% | viability, T/C [42] 27% | viability, T/C [13] 21.4% | viability, T/C [14] 18.4%
> 100 nM: IC50 (second compound 0.0316 µM) | IC50 (second compound 0.1 µM)
active: viability, T/C (second compound 1 µM, first compound 0.000316 µM) 0.11% | viability, T/C (second compound 1 µM, first compound 0.001 µM) 2% | viability, T/C [43] 2.06% | viability, T/C [44] 0.15% | viability, T/C [19] 1.32% | viability, T/C [20] 2.11% | viability, T/C (second compound 3.16 µM, first compound 0.000316 µM) 0.08% | viability, T/C (second compound 3.16 µM, first compound 0.001 µM) 0.77% | viability, T/C [45] 4.18% | viability, T/C [46] 0.08% | viability, T/C [25] 1.73% | viability, T/C [26] 1.99% | viability, T/C (second compound 10 µM, first compound 0.000316 µM) 0.17% | viability, T/C (second compound 10 µM, first compound 0.001 µM) 0.14% | viability, T/C [47] 1.47% | viability, T/C [48] 0.12% | viability, T/C [31] 2.53% | viability, T/C [32] 1.76%
< 0.316 nM: IC50 (second compound 0.316 µM) | IC50 (second compound 1 µM) | IC50 (second compound 3.16 µM) | IC50 (second compound 10 µM)

Nc1ccn(C2OC(CO)C(O)C2(F)F)c(=O)n1 (stereo not given) + CN1CCN(c2cc(C(=O)Nc3cc4cc(-c5cnn(C)c5)ccc4cn3)ccn2)CC1
< 31.6 nM: IC50 (second compound 0.0316 µM) | IC50 (second compound 0.1 µM) | IC50 (second compound 0.316 µM) | IC50 (second compound 1 µM) | IC50 (second compound 3.16 µM) | IC50 (second compound 10 µM)
active: viability, T/C [1] 3.79% | viability, T/C [2] 2.43% | viability, T/C [3] 4.26% | viability, T/C [4] 2.86% | viability, T/C [5] 2.91% | viability, T/C [6] 3.08% | viability, T/C [7] 4.42% | viability, T/C [8] 3.79% | viability, T/C [9] 4.8% | viability, T/C [10] 3.59% | viability, T/C [11] 3.13% | viability, T/C [12] 4.21% | viability, T/C [13] 4.28% | viability, T/C [14] 2.41% | viability, T/C [15] 3.74% | viability, T/C [16] 1.82% | viability, T/C [17] 1.62% | viability, T/C [18] 5.1% | viability, T/C [19] 0.09% | viability, T/C [20] 1.02% | viability, T/C [21] 2.83% | viability, T/C [22] 0.09% | viability, T/C [23] 2.43% | viability, T/C [24] 0.07% | viability, T/C [25] 1.17% | viability, T/C [26] 1.23% | viability, T/C [27] 0.12% | viability, T/C [28] 1.22% | viability, T/C [29] 0.16% | viability, T/C [30] 0.38% | viability, T/C [31] 2.37% | viability, T/C [32] 0.17% | viability, T/C [33] 0.7% | viability, T/C [34] 0.17% | viability, T/C [35] 1.04% | viability, T/C [36] 0.35%

O=c1[nH]cc(F)c(=O)[nH]1 + CN1CCN(c2cc(C(=O)Nc3cc4cc(-c5cnn(C)c5)ccc4cn3)ccn2)CC1
inactive: viability, T/C [1] 76.7% | viability, T/C [2] 26.6% | viability, T/C [3] 13.9% | viability, T/C [4] 9.49% | viability, T/C [5] 10.6% | viability, T/C [6] 13.6% | viability, T/C [7] 74.7% | viability, T/C [8] 32.6% | viability, T/C [9] 12.5% | viability, T/C [10] 10.6% | viability, T/C [11] 10.2% | viability, T/C [12] 16.8% | viability, T/C [13] 25.9% | viability, T/C [14] 14.3% | viability, T/C [15] 14.6%
< 31.6 nM: IC50 (second compound 0.316 µM) | IC50 (second compound 1 µM) | IC50 (second compound 3.16 µM) | IC50 (second compound 10 µM)
active: viability, T/C [16] 7.98% | viability, T/C [17] 6.74% | viability, T/C [18] 5.92% | viability, T/C [19] 0.13% | viability, T/C [20] 4.38% | viability, T/C [21] 0.56% | viability, T/C [22] 0.05% | viability, T/C [23] 2.73% | viability, T/C [24] 0.78% | viability, T/C [25] 0.03% | viability, T/C [26] 3.69% | viability, T/C [27] 4.78% | viability, T/C [28] 0.03% | viability, T/C [29] 0.16% | viability, T/C [30] 0.08% | viability, T/C [31] 0.03% | viability, T/C [32] 0.64% | viability, T/C [33] 2.65% | viability, T/C [34] 0.06% | viability, T/C [35] 4.08% | viability, T/C [36] 1.3%
58.4 nM: IC50 (second compound 0.0316 µM)
62.1 nM: IC50 (second compound 0.1 µM)
